# Results published in publication PMC11729419, “Thiol-Reactive or Redox-Active: Revising a Repurposing Screen Led to a New Invalidation Pipeline and Identified a True Noncovalent Inhibitor Against Papain-like Protease from SARS-CoV-2” (ACS Pharmacology & Translational Science, 2024).
# How the values were obtained:
# SARS-CoV-2 PLpro-NAB = SARS-CoV-2 PLpro-NAB (Severe acute respiratory syndrome coronavirus 2, UniProt P0DTD1); experiment: biochemical; settings: for HP PLpro-NAB inhibition [%] 20 μM triplicates 1 mM L-cys buffer: hit profiling
# PLpro-NAB [1] = biological target: T1, PLpro-NAB (Severe acute respiratory syndrome coronavirus 2, UniProt P0DTD1); assay type: binding, SARS-CoV-2; settings: consistent in both DTT and L-Cys buffers
# PLpro-NAB [2] = biological target: T1, PLpro-NAB; experiment: STD-NMR ligand binding and competition; parameters: species or system SARS-CoV-2; settings: for STD amplification factor AMP: 0.15 mM compound, PLpro/compound 1:100
# PLpro-NAB C111S = PLpro-NAB C111S (Severe acute respiratory syndrome coronavirus 2, UniProt P0DTD1, C1674S); assay type: binding, SARS-CoV-2
compound,measurement,setting,value
CCS(=O)(=O)N1CCC([C@@H](C)n2c(C)c(C(=O)NCc3c(OC)cc(C)[nH]c3=O)c3ccccc32)CC1 [CPI-169],Inhibition in L-cysteine buffer versus DTT buffer (dose-response),SARS-CoV-2 PLpro-NAB; 1 mM L-cysteine vs 1 mM DTT,did not show variations in inhibition potency or thermal stability
same,Inhibitory activity on retest in 1 mM L-cysteine,"SARS-CoV-2 PLpro-NAB; 50% inhibition at 20 μM, 1 mM L-cysteine",retained their inhibitory activity
same,HC PLpro-NAB inhibition [%] 20 μM triplicates 1 mM DTT buffer,"SARS-CoV-2 PLpro-NAB; hit confirmation, 20 μM, 1 mM DTT buffer, average (SD), 20 μM PR619 = 100%, DMSO = 0%, listed as CPI-169 (FhG)",99.81 (2.18) %
same,inhibition at 20 µM,"SARS-CoV-2 PLpro-NAB; hit confirmation, 20 μM, 1 mM DTT buffer, average (SD), 20 μM PR619 = 100%, DMSO = 0%, read-out: HC PLpro-NAB inhibition [%] 20 μM triplicates 1 mM DTT buffer",96%
same,HP PLpro-NAB inhibition [%] 20 μM triplicates 1 mM L-cys buffer,"SARS-CoV-2 PLpro-NAB; 20 μM, average (SD), 20 μM PR619 = 100%, listed as CPI-169 (EOS)",49.41 (2.14) %
same,HP PLpro-NAB inhibition [%] 20 μM triplicates 1 mM L-cys buffer,"SARS-CoV-2 PLpro-NAB; 20 μM, average (SD), 20 μM PR619 = 100%, listed as CPI-169 (FhG)",70.67 (1.71) %
same,Tm value of PLpro-NAB,PLpro-NAB [1],concentration-dependent increase in the Tm value
same,Competitive STD-NMR with GRL-0617,PLpro-NAB [2],displacement of CPI-169 from the GRL-0617 binding site
same,STD amplification factor AMP,PLpro-NAB [2]; proton H11,0.74
same,STD amplification factor AMP,PLpro-NAB [2]; proton H13,1.19
same,STD amplification factor AMP,PLpro-NAB [2]; proton H23,0.43
same,STD amplification factor AMP,PLpro-NAB [2]; proton H35,0.89
same,Tm / stability of PLpro-NAB C111S,PLpro-NAB C111S,increased the Tm
